The record followed here is patent US20230233545A1, “TREATMENT OF ATRIAL DYSFUNCTION” (MyoKardia, Inc., priority 2020, published 2023).

One data set concerns LA skinned muscle fibers. The experiment in a line: Myocardial force generation, LA skinned muscle fibers (tension-pCa, stiffness). The conditions noted are these: at 3 μM. It counts as biochemical, Yucatan mini-pig. As for the experimental part: The ability of Compound I to increase myocardial force generation at a given Ca2+ concentration was evaluated using LA (n=6) and LV (n=6) skinned muscle fibers prepared from three different Yucatan mini-pig hearts. In short, as previously described, 3 hearts were harvested, rinsed and shipped in cold cardioplegia solution (Custodiol® HTK; Essential Pharmaceuticals, LLC, NC, USA). Upon receipt, LV (papillary) and LA muscle fibers were dissected at 4° C. in a high-relaxing solution (100 mM BES, 10 mM EGTA, 6.57 mM MgCl2, 10 mM creatine phosphate, 6.22 mM ATP, 41.89 mM Kprop, 2.5 μM pepstatin, 1 μM leupeptin, 50 μM PMSF, 5 mM NaN3, pH 7.0). Fiber bundles were cut and skinned (in a high-relaxing solution containing 1% Triton X-100), fitted with aluminum foil t-clips, and mounted on a mechanics apparatus (Aurora Scientific Inc., ON, Canada). Sarcomere length was set to 2.0 μm. Steady-state isometric tension and stiffness (via a 3% stretch over 250 ms) were measured at increasing concentrations of Ca^2+ (pCa 8.0 to 4.5, adjusted to maintain 180 mM ionic strength) twice, first in the absence (control, 1% DMSO) and then in the presence of Compound I (3 μM, 1% DMSO). […] Active and passive stiffness were calculated by measuring the slope of the early (Ca^2+ dependent) and late phases, respectively, of the tension response to the brief 3% stretches. […]

In data set [1] the target is left atrial (LA) myofibrils (Sus scrofa, UniProt K7GMH0). Nature of the data set: Steady-state ATPase (ATP turnover rate), LA myofibrils. It counts as biochemical, Yucatan mini-pig. As for the experimental part: The ability of Compound I to increase myocardial ATP turnover rates selectively was evaluated using both left atrial (LA) and left ventricular (LV) myofibrils prepared from Yucatan mini-pig hearts, as well as subfragment-1 (51) myosins from cardiac (recombinant human), skeletal (rabbit psoas) and smooth (chicken gizzard) muscles. Pig hearts were harvested, and the left atria/ventricles were freshly excised, dissected, frozen in liquid nitrogen and stored at −80° C. […] This enzyme system couples the formation of ADP to the oxidation of NADH leading to an absorbance change at 340 nm. […] All measurements were carried out at 25° C. using a plate reader (SpectraMax; Molecular Devices, LLC, CA, USA) to monitor the change in absorbance as a function of time; data were normalized to a per-second scale as described in Green et al., Science (2016) 351(6273):617-21. […]

The nature of data set [2]: Pharmacokinetics in patients with stable HFrEF. It counts as in vivo. The note with it: human, oral. Here is the method:
In the single-ascending dose trial, single fasting doses of Compound I 175-550 mg or placebo were evaluated in a crossover manner in 12 patients over two sequential cohorts (1 and 2), with intervals between singles doses ranging from 3 days (subsequently amended to 5) to 14 days. In Cohort 1, eight patients were enrolled and all received placebo and Compound I 175 mg and 350 mg (in random sequence and in a blinded fashion) during three periods, A-C. Six patients elected to continue into a fourth optional open label period D. Compound I doses administered in the open-label period included: 350 mg (n=1); 450 mg (divided into two administrations; n=1); 525 mg (n=2); and 550 mg (divided into two administrations; n=2). In Cohort 2, four patients were enrolled, and all received placebo and Compound I 400 mg and 500 mg in random sequence (both active 400 mg and 500 mg doses were divided into two administrations).
For each treatment period, pre-dose assessments followed by administration of single dose were performed on Day 1 in the morning. The patient underwent serial pharmacokinetic (PK), pharmacodynamic (PD [trans-thoracic echocardiography or TTE]), ECG and safety laboratory assessments through Day 1 (until the evening) as well as on Day 2. Patients were discharged on Day 3 morning and returned to the clinic on Day 4 for a final PK assessment, and evaluation of adverse events (AEs). […]

left atrial (LA) myofibrils, sequence (F1SSF9 2-175): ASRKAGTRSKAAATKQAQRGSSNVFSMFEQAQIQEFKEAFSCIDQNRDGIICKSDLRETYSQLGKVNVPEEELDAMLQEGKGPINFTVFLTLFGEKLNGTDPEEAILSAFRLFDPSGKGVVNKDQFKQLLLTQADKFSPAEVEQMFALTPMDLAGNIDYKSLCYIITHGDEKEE
left atrial (LA) myofibrils, sequence (K7GMH0 entry or part of it): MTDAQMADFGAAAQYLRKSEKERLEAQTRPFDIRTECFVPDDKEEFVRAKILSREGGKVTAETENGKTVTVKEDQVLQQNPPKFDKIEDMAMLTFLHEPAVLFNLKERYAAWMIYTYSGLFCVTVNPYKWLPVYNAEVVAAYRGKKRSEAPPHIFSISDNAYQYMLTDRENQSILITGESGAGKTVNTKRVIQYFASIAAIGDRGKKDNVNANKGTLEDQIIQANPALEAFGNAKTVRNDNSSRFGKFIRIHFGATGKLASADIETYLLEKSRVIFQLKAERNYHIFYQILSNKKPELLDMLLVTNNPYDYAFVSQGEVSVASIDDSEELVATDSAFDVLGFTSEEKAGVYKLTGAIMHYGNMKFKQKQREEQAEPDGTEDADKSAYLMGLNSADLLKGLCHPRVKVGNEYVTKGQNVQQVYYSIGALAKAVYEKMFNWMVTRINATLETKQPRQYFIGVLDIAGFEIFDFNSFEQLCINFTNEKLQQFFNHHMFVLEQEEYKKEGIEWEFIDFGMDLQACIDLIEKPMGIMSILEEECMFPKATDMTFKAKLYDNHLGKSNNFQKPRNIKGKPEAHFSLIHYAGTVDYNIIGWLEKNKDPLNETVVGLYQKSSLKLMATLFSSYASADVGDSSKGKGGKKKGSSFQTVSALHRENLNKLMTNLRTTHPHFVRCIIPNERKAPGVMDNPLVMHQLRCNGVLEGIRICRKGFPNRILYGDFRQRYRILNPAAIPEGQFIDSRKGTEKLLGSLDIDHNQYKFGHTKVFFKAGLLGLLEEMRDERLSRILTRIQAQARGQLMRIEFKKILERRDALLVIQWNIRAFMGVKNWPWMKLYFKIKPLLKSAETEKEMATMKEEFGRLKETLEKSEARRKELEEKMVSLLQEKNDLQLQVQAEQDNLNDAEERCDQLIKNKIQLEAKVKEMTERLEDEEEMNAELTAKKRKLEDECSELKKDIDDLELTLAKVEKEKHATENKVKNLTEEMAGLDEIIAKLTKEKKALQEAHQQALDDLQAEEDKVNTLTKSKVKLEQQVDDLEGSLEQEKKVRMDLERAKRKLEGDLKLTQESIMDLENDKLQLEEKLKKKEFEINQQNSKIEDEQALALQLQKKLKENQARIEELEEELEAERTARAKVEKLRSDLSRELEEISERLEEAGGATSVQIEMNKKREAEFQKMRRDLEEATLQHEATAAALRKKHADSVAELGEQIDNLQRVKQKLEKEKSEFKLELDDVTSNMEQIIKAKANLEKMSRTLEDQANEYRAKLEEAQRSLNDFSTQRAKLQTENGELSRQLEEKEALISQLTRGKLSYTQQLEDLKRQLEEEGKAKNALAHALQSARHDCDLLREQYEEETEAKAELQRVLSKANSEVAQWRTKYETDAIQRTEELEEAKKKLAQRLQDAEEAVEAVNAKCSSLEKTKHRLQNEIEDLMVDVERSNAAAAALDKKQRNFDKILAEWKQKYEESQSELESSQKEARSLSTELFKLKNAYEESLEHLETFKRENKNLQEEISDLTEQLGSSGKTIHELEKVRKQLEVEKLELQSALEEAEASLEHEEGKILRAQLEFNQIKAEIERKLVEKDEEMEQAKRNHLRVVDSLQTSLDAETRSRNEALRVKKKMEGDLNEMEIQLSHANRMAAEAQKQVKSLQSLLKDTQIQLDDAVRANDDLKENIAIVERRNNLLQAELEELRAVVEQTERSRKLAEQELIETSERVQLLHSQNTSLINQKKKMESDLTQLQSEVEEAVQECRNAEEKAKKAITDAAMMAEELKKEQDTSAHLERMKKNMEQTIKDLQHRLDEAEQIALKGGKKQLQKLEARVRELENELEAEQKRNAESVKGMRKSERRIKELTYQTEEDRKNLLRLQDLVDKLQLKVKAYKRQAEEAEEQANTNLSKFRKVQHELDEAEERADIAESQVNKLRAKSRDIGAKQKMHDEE
left atrial (LA) myofibrils, sequence (F1RRT2 2-197, further chain): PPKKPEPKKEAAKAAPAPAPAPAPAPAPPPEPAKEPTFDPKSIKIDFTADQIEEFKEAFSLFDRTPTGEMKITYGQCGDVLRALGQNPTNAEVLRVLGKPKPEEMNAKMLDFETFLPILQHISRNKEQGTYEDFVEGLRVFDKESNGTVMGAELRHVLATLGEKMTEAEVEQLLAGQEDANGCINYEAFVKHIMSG

Regarding `Cn1cc(S(=O)(=O)[C@@](C)(F)C2CCN(C(=O)Nc3ccon3)CC2)c(C(F)F)n1` [Compound I, (R)-4-(1-((3-(difluoromethyl)-1-methyl-1H-pyrazol-4-yl)sulfonyl)-1-fluoroethyl)-N-(isoxazol-3-yl)piperidine-1-carboxamide], in the data set on LA skinned muscle fibers, the “passive stiffness, atrial skinned fibers” value is “without altering passive stiffness”. In addition, the “maximal force-generation capability, atrial skinned fibers” value in the data set with LA skinned muscle fibers (data not shown) is listed as “without altering”. Further, the activation at 3 µM in data set [1] (at 3 μM, read-out: increase in ATPase, LA porcine myofibrils) amounted to 56%. For the same compound, in data set [1] (at 50 μM, SD ±0.3, read-out: increase in ATPase turnover rate, atrial myofibrils), the fold induction at 50 µM turned out to be 2.3. Also, the half-life (in general, the time needed for the level to fall by half in the phase considered) in data set [2] (in vivo, patients that received Compound I as part of Cohort 1 (single doses)) was in the range of 20 to 25 h. The concentration at 7 days in data set [2] (plasma, 50 mg BID, with food, read-out: steady-state concentration) fell in the range of 2000 to 3500 ng/mL.
